Earlier results in PMC5587309, “Involvement of arginine 878 together with Ca^2+ in mouse aminopeptidase A substrate specificity for N-terminal acidic amino-acid residues” (PLoS ONE, 2017).

What was measured:
APA = molecular target: APA; design: method as in PMID 7915326; conditions: read-out: inhibitory potency on APA; cited from earlier work
APN = tested on: APN; design: method as in PMID 7915326; conditions: cited from earlier work

Q: With `N[C@H](CS)CCS(=O)(=O)O` [EC33, (3S)‐3‐amino‐4‐sulfanylbutane‐1‐sulfonic acid] as the compound, how does the Ki (APA) read?
A: Its Ki is 100 nM.

Q: And the “fold less active on APN than on APA” value (APN)?
A: Its value is 100 fold.
